This is an account of results in PMC5554167, “Intestinal transepithelial permeability of oxytocin into the blood is dependent on the receptor for advanced glycation end products in mice” (Scientific Reports, 2017).

Where two headings read alike, the source gives them in different places.

The conditions of data set [1]: adult humans, cited from earlier work. The procedure:
An estimation of bioavailability was performed in adult mice. Fifty ng/mL of OT was detected after oral delivery of 10 μg of OT. Young adults weigh approximately 30 g and have 2.3 mL blood, so approximately 1% of oral OT can be absorbed. We have previously identified OT in the mammary tissues of mouse dams and in the milk curd inside the oesophagi of pups[13]. To determine the OT concentrations in milk, we needed to collect milk from the mothers. One common method is to collect milk after stimulating secretion with external OT. Because such milk contains external OT, we were unable to calculat ...

A short description of data set [2]: LC-MS/MS of [Ile13C,15N]OT in plasma after oral administration to pups. Type of data set: in vivo, mice. The procedure:
Plasma samples were collected from the heart of anesthetized wild-type PND3 pups at 10 min after oral administration of [Ile ^13C, ^15N]OT (100 µM × 10 μL). The samples were fractionated with 1 N salt, and subjected to LC-MS/MS after sample preparation by the deproteination procedure. Figure 7 illustrates two representative traces of multiple reaction monitoring (MRM) chromatograms ([M + H^+] (m/z 1014.6) → b6 ion (m/z 730.6) for the administered [Ile ^13C, ^15N]OT; [M + H^+] (m/z 1021.2) → b6 ion (m/z 723.2) for the internal STD [Pro&Leu^13C, ^15N]OT)[47]. The left MRM chromatogram indicates the presence of full-length stably labelled [Ile ^13C, ^15N]OT in the blood owing to intestinal absorption after oral administration in suckling (PND3) pups (n = 4). The right MRM chromatogram of Fig. 7 corresponds to the internal STD [Pro&Leu^13C, ^15N]OT spiked into the plasma.
Standard (STD) samples of [Ile^13C, ^15N]OT (100 ng/mL) and [Pro&Leu^13C, ^15N]OT (100 ng/mL) were prepared by dilution of stock solutions with 0.1% TFA as necessary. […]
An AB Sciex 4000 QTRAP (CA, USA) was used. The prepared 25 μL sample was injected and separated by a ZORBAX 300SB-C8 column (2.1 × 150 mm, 5 μm; CA, USA) and then detected using the multiple reaction monitoring (MRM) mode of the MS/MS system. […]

The nature of data set [3]: Plasma AVP after oral delivery of AVP in pups (EIA). Type of data set: in vivo, mice. To be noted: for AVP recovery: rough estimate. As for the experimental part:
To study the specificity of RAGE-dependent transport of OT, we investigated the intestinal absorption of another nonapeptide, arginine vasopressin (AVP[46]) by oral delivery and in the isolated intestines. Transport during the suckling period of development (PND3 and PND5) was confirmed by comparing plasma AVP levels at 10 min after oral delivery of 10 μL of synthetic AVP solution (100 μM; 1 μg/pup) or the same volume of PBS to pups after fasting for 30 min. Plasma AVP concentrations were markedly higher at both PND3 and PND5 in pups administered AVP than in those administered oral saline (Fig. 6a). Two-way ANOVA was used to analyse the interaction between Treatment (PBS/AVP) × Age, F 1,18 = 3.14, P = 0.0933; the Treatment (PBS/AVP) effect, F 1,18 = 5.21, P < 0.05; and the Age effect, F 1,18 = 91.26, P < 0.0001. Bonferroni’s post hoc tests were used to determine differences in AVP levels between PND3 and PND5, *P < 0.05. It is worth noting that the pup size denominator problem was also present in the above experiment. However, if we roughly estimate AVP recovery, it is approximately 4% at PND3 (22 ng was recovered from the effective dose of 555 ng (1 μg/1.8 g pup)) and also 4% at PND5 (16 ng was recovered from the effective dose of 400 ng (1 μg/2.5 g pup)).
Approximately 30 μL of blood was collected from the facial vein of neonates after quick cold anesthesia on ice (Fig. 1a; ref. [67], [68]). The similar blood volume was obtained from the heart after opening of the chest of pups (Figs 1b–d, 3a,b, 6a and 7), from the carotid artery in the pup neck (Fig. 2a) and the tail vein of adults each time (Fig. 6) under ketamine anaesthesia ([…] intraperitoneally).
OT or AVP immunoreactivity levels were quantified by using OT and AVP enzyme immunoassay (EIA) kits (Enzo Life Sciences, NY, USA), respectively. We performed assays in tissue preparations without pre-treatment[66], [70] to compare different tissue samples, though the fractioned sample was recommended, [72]. Blood samples collected as mentioned above were stored at −80 C. The blood samples were thawed and five μL of them were diluted 1:20 in assay buffer on ice and assayed.

`CC[C@H](C)[C@@H]1NC(=O)[C@H](Cc2ccc(O)cc2)NC(=O)[C@@H](N)CSSC[C@@H](C(=O)N2CCC[C@H]2C(=O)N[C@@H](CC(C)C)C(=O)NCC(N)=O)NC(=O)[C@H](CC(N)=O)NC(=O)[C@H](CCC(N)=O)NC1=O` had an OT detected in plasma after oral delivery of 50 ng/mL.
With 1-deamino-8-arginine vasopressin, the Bioavailability in data set [1] (intranasal) was 3.4%; in data set [1] (intrarectal), 0%; in data set [1] (oral), 0.1%; in data set [1] (sublingual), 0%.
In the case of `CC[C@H](C)[C@@H]1NC(=O)[C@H](Cc2ccc(O)cc2)NC(=O)[C@@H](N)CSSC[C@@H](C(=O)N2CCC[C@H]2C(=O)N[C@@H](CC(C)C)C(=O)NCC(N)=O)NC(=O)[C@H](CC(N)=O)NC(=O)[C@H](CCC(N)=O)NC1=O` [[Ile ^13C, ^15N]OT, isoleucine [Ile ^13C, ^15N] oxytocin], the level at 10 min in data set [2] (mouse, in vivo, 1000 ng, wild-type PND3 pups 10 min after oral 100 µM × 10 μL, LC-MS/MS, corrected for dilution x10, n = 4, read-out: Estimated mean concentration in the blood) was 346 ± 96 ng/mL. Besides, the “Concentration calculated from ratio of peak areas (10-fold diluted sample)” value in data set [2] (wild-type PND3 pup plasma 10 min after oral 100 µM × 10 μL, LC-MS/MS MRM, sample of Fig. 7, before correction for dilution) is 27.9 ng/mL.
Take arginine vasopressin [AVP]: the AVP recovered was determined as 22 ng in data set [3] (wild-type pups PND3, 10 min after oral AVP 1 μg/pup, effective dose 555 ng) and 16 ng in data set [3] (wild-type pups PND5, 10 min after oral AVP 1 μg/pup, effective dose 400 ng). For the same compound, the AVP recovery result in data set [3] (wild-type pups PND3, 10 min after oral AVP 1 μg/pup, effective dose 555 ng (1 μg/1.8 g pup)) is given as “approximately 4%”; in data set [3] (wild-type pups PND5, 10 min after oral AVP 1 μg/pup, effective dose 400 ng (1 μg/2.5 g pup)), “approximately 4%”.
